{"source": "patent US9907852B2", "about": "“Anticancer agent and side-effect-alleviating agent” (National University Corporation University of Toyama, priority 2014, dated 2018)", "data": [{"tested_on": "pancreas cancer cell strain PANC-1", "assay": "not given", "settings": "Non-Patent Document 1; cited from earlier work", "values": [{"smiles": "COc1cc(C[C@H]2C(=O)OC[C@@H]2Cc2ccc(OC)c(OC)c2)ccc1O", "note": "[arctigenin]", "removal of the viability of tumor cells in a low nutritional state": "effective"}]}, {"tested_on": "Miapaca-2 cells", "assay": "Tumor size in model transplanted pancreas cancer, existing anticancer agents combined with Burdock Fruit extract (Test Example 6)", "format": "in vivo, mice", "settings": "anticancer agent combined with GBS-01 750 mg/kg oral 5 days a week; about 4 weeks", "method": "Miapaca-2 cells (5×10^6 cells/200 μl ) were subcutaneously transplanted under the armpit of BALB/cAJcl-nu/nu mice (CLEA Japan, Inc.), and after feeding of about 2 weeks those that grew to the size of about 100 mm^3 or about 600 mm^3 were selected and employed as the subject mice to be treated.\nThus prepared transplanted mice were divided into the respective groups, that is, an untreated group, a group administered an existing anticancer agent as a component having a variety of anticancer activities, a Burdock Fruit extract administered group and a group of combined administration of these agents, and the treatment was continued over about 4 weeks for 5 to 6 species of tumors in the respective groups. The existing anticancer agents used include Carboplatin (CBDCA, Bristol-Myers, peritoneal administration, 60 mg/kg once a week), Doxorubicin (Kyowa Hakko, peritoneal administration, 10 mg/kg twice a week), Oxaliplatin (Yakult, peritoneal administration, 8 mg/kg once a week), Everolimus (Novartis, oral administration, 5 mg/kg 5 times a week) , Bortezomib (Janssen Pharma, peritoneal administration, 1 mg/kg twice a week), Irinotecan (Yakult, peritoneal administration, 25 mg/kg twice a week), and Hydroxychloroquine (Sanofi, peritoneal administration, 100 mg/kg 5 times a week) . As for Burdock Fruit extract, 10% arctigenin-containing Burdock Fruit extract (Kracie Co., GBS-01) was used and orally administered at a dose of 750 mg/kg 5 days a week.\nAt intervals of 3 to 4 days, the mouse was fixed and the length (L), the minor axis (W) and the height (H) of tumor were measured by a precision digital vernier micrometer, from which the tumor size was calculated using the formula: Tumor size=4/3*pi*L/2*H/2*W/2(pi=3.14)\nWhen the height cannot be measured, the formula: Tumor size=4/3*pi*L/2*(W/2)^2 was used for convenience.", "units": {"tumor size reduced compared to a single preparation of Burdock Fruit extract": "times"}, "values": [{"smiles": "CO[C@H]1C[C@@H]2CC[C@@H](C)[C@@](O)(O2)C(=O)C(=O)N2CCCC[C@H]2C(=O)O[C@H]([C@H](C)C[C@@H]2CC[C@@H](OCCO)[C@H](OC)C2)CC(=O)[C@H](C)/C=C(\\C)[C@@H](O)[C@@H](OC)C(=O)[C@H](C)C[C@H](C)/C=C/C=C/C=C/1C", "note": "[everolimus, Everolimus]", "tumor size reduced compared to a single preparation of Burdock Fruit extract": 2.1, "tumor size reduced compared to a single preparation of the anticancer agent": "1.4 times"}, {"smiles": "CC(C)C[C@H](NC(=O)[C@H](Cc1ccccc1)NC(=O)c1cnccn1)B(O)O", "note": "[bortezomib, Bortezomib]", "tumor size reduced compared to a single preparation of Burdock Fruit extract": 1.8, "tumor size reduced compared to a single preparation of the anticancer agent": "1.4 times"}, {"smiles": "CCN(CCO)CCCC(C)Nc1ccnc2cc(Cl)ccc12", "note": "(centres unmarked) [hydroxychloroquine]", "tumor size reduced compared to a single preparation of Burdock Fruit extract": 1.9, "tumor size reduced compared to a single preparation of the anticancer agent": "2.5 times"}, {"smiles": "CCc1c2c(nc3ccc(OC(=O)N4CCC(N5CCCCC5)CC4)cc13)-c1cc3c(c(=O)n1C2)COC(=O)[C@]3(O)CC", "note": "[irinotecan, Irinotecan]", "tumor size reduced compared to a single preparation of Burdock Fruit extract": 2.1, "tumor size reduced compared to a single preparation of the anticancer agent": "1.5 times"}, {"smiles": "COc1cccc2c1C(=O)c1c(O)c3c(c(O)c1C2=O)C[C@@](O)(C(=O)CO)C[C@@H]3O[C@H]1C[C@H](N)[C@H](O)[C@H](C)O1", "note": "[doxorubicin, Doxorubicin]", "tumor size reduced compared to a single preparation of Burdock Fruit extract": 1.4, "tumor size reduced compared to a single preparation of the anticancer agent": "about 1.5 times"}]}, {"tested_on": "not listed separately", "assay": "Solubility in water", "format": "physicochemical", "settings": "not given", "values": [{"smiles": "COc1cc(C[C@H]2C(=O)OC[C@@H]2Cc2ccc(OC)c(OC)c2)ccc1O", "note": "[arctigenin]", "solubility in water": "slightly soluble"}, {"smiles": "COc1ccc(C[C@H]2COC(=O)[C@@H]2Cc2ccc(O[C@@H]3O[C@H](CO)[C@@H](O)[C@H](O)[C@H]3O)c(OC)c2)cc1OC", "note": "[arctiin]", "solubility in water": "slightly soluble"}]}, {"tested_on": "PANC-1 (ATCC No. CRL-1469) cells", "assay": "not given", "settings": "not given", "values": [{"smiles": "C[C@]12CC[C@H](OS(=O)(=O)O)CC1=CC[C@@H]1[C@@H]2CC[C@]2(C)C(=O)CC[C@@H]12", "note": "[DHEA-S]", "Magnification of LD50 decrease": 3.13}, {"smiles": "CNC(=N)NCCC[C@H](N)C(=O)O", "note": "[L-NMMA]", "Magnification of LD50 decrease": 1.72}, {"smiles": "Cc1cn([C@H]2C[C@H](N=[N+]=[N-])[C@@H](CO)O2)c(=O)[nH]c1=O", "note": "[AZT]", "Magnification of LD50 decrease": 4.67}, {"smiles": "CC(C)[C@H](CO)Nc1nc(Nc2cccc(Cl)c2)c2ncn(C(C)C)c2n1", "note": "[Purvalanol A]", "Magnification of LD50 decrease": 1.71}, {"smiles": "c1cc(-c2cnn3cc(-c4ccc(OCCN5CCCCC5)cc4)cnc23)ccn1", "note": "[Dorsomorphin]", "Magnification of LD50 decrease": 6.14}, {"smiles": "Nc1nc(OCc2ccccc2)c2nc[nH]c2n1", "note": "[Benzylguanine]", "Magnification of LD50 decrease": 8.24}, {"smiles": "CCCCOc1cc(CC2CNC(=O)N2)ccc1OC", "note": "(centres unmarked) [Ro-20-1724]", "Magnification of LD50 decrease": 1.66}]}]}
